Data on 23 compounds can be found in ChEMBL document CHEMBL3779856, “Synthesis and antiproliferative activity of 6,7-disubstituted-4-phenoxyquinoline derivatives bearing the 2-oxo-4-chloro-1,2-dihydroquinoline-3-carboxamide moiety” (Bioorg Med Chem Lett, 2016).

The subject of test [1] is HT-29. Kind of test: cells. Particulars: Homo sapiens, HT-29, 72 h.
Description: Cytotoxicity against human HT-29 cells assessed as cell growth inhibition after 72 hrs by MTT assay
The nature of test [2]: cells. Particulars: Homo sapiens, NCI-H460, 72 h.
Description: Cytotoxicity against human H460 cells assessed as cell growth inhibition after 72 hrs by MTT assay
A short description of test [3]: cells. Particulars: Homo sapiens, MKN-45, 72 h.
Description: Cytotoxicity against human MKN45 cells assessed as cell growth inhibition after 72 hrs by MTT assay
The nature of test [4]: Cytotoxicity against human U87MG cells assessed as cell growth inhibition after 72 hrs by MTT assay. Type of test: functional, cell-based, U-87MG ATCC. Particulars: U-87 MG.
The next test relates to A549. Description: Cytotoxicity against human A549 cells assessed as cell growth inhibition after 72 hrs by MTT assay. It counts as functional, cell-based. Particulars: A549, 72 h.
Test [5] addresses Hepatocyte growth factor receptor (Homo sapiens, UniProt P08581). Kind of test: Inhibition of cMet (unknown origin) using poly (Glu, Tyr) 4:1 as substrate after 30 mins by HTRF assay.
The nature of test [6]: Potency index, ratio of foretinib IC50 to compound IC50 for human H460 cells. It counts as functional.
Test [7] relates to HT-29. Kind of test: Potency index, ratio of foretinib IC50 to compound IC50 for human HT-29 cells. It counts as functional.
The next test has as its system U-87 MG. Kind of test: Potency index, ratio of foretinib IC50 to compound IC50 for human U87MG cells. It counts as functional, U-87MG ATCC.
Test [8] has as its target T1, Receptor-type tyrosine-protein kinase FLT3 (Homo sapiens, UniProt P36888).
T1 sequence (P36888 whole entry): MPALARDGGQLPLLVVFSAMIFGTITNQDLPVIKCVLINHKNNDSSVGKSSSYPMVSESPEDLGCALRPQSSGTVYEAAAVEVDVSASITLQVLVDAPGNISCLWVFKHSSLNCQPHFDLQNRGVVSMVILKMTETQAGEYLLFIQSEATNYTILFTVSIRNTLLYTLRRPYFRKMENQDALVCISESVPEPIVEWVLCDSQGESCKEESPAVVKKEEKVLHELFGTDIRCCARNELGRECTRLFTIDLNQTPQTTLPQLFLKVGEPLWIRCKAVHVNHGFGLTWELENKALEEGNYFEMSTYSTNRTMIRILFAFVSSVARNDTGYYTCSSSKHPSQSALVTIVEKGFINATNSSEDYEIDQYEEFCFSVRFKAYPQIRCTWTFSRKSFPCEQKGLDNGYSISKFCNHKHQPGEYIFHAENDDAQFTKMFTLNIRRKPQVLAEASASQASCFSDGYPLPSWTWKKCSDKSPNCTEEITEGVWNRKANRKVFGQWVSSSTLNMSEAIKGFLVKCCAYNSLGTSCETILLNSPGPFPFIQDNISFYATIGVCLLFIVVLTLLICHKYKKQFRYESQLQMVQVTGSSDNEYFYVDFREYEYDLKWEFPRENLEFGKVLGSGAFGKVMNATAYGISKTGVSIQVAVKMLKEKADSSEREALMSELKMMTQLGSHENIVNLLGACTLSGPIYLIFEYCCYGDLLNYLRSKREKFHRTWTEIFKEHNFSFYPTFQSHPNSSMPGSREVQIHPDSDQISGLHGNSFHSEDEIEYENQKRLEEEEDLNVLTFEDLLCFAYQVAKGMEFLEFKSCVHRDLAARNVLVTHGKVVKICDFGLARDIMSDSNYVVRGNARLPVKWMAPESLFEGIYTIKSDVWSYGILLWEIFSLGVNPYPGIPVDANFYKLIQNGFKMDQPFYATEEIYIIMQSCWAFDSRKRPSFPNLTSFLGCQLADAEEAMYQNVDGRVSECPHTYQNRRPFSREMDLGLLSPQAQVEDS
Kind of test: Inhibition of FLT3 (unknown origin) using poly (Glu, Tyr) 4:1 as substrate after 30 mins by HTRF assay. For orientation: In TR-FRET formats the signal depends on donor and acceptor labels being close together.

Test [9] concerns the target Mast/stem cell growth factor receptor Kit (Homo sapiens, UniProt P10721). Description: Inhibition of cKIT (unknown origin) using poly (Glu, Tyr) 4:1 as substrate after 30 mins by HTRF assay.
For test [10], the target named is Platelet-derived growth factor receptor beta (Homo sapiens, UniProt P09619). Kind of test: Inhibition of PDGFRbeta (unknown origin) using poly (Glu, Tyr) 4:1 as substrate after 30 mins by HTRF assay.
The target in test [11] is Vascular endothelial growth factor receptor 2 (Homo sapiens, UniProt P35968). Kind of test: Inhibition of VEGFR-2 (unknown origin) using poly (Glu, Tyr) 4:1 as substrate after 30 mins by HTRF assay.
In test [12] the target is Epidermal growth factor receptor (Homo sapiens, UniProt P00533). Description: Inhibition of EGFR (unknown origin) using poly (Glu, Tyr) 4:1 as substrate after 30 mins by HTRF assay.

Some results are limits rather than exact numbers.

Hepatocyte growth factor receptor, sequence (P08581 whole entry): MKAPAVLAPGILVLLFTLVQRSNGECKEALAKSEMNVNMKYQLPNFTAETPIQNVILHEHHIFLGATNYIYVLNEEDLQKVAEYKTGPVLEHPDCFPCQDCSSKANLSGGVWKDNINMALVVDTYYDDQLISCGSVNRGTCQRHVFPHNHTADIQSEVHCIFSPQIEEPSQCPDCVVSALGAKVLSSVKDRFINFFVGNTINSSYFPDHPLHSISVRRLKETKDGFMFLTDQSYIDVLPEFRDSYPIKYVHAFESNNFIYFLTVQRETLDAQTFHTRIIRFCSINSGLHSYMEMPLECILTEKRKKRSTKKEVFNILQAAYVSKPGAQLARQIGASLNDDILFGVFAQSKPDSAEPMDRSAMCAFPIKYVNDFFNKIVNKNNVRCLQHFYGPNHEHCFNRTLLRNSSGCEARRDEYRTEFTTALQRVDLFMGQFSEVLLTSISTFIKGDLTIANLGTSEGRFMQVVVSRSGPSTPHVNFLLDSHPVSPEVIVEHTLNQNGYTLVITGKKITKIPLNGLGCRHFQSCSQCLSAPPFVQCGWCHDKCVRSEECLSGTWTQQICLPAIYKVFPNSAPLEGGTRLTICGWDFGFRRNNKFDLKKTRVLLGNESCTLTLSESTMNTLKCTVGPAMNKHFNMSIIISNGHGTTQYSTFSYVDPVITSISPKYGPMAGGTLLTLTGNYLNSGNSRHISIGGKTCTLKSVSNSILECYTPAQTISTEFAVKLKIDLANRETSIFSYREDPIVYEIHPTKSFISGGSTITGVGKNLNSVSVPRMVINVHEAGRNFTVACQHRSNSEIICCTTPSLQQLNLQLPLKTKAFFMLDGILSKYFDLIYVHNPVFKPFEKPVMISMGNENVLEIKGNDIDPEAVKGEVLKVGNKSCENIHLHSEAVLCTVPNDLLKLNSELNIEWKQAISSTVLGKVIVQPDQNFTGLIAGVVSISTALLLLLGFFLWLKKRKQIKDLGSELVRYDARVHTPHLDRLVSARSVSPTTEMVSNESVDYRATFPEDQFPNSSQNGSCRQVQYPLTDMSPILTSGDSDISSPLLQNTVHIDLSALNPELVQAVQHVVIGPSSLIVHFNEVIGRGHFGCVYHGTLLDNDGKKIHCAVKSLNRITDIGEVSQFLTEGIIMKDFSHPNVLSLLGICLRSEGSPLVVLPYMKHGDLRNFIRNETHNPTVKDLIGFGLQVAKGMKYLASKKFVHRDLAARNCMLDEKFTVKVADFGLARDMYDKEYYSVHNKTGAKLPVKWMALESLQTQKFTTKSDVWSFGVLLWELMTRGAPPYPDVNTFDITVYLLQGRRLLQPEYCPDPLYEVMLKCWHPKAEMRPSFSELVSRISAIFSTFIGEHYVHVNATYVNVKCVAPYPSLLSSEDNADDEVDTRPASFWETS
Mast/stem cell growth factor receptor Kit, sequence (P10721 whole entry): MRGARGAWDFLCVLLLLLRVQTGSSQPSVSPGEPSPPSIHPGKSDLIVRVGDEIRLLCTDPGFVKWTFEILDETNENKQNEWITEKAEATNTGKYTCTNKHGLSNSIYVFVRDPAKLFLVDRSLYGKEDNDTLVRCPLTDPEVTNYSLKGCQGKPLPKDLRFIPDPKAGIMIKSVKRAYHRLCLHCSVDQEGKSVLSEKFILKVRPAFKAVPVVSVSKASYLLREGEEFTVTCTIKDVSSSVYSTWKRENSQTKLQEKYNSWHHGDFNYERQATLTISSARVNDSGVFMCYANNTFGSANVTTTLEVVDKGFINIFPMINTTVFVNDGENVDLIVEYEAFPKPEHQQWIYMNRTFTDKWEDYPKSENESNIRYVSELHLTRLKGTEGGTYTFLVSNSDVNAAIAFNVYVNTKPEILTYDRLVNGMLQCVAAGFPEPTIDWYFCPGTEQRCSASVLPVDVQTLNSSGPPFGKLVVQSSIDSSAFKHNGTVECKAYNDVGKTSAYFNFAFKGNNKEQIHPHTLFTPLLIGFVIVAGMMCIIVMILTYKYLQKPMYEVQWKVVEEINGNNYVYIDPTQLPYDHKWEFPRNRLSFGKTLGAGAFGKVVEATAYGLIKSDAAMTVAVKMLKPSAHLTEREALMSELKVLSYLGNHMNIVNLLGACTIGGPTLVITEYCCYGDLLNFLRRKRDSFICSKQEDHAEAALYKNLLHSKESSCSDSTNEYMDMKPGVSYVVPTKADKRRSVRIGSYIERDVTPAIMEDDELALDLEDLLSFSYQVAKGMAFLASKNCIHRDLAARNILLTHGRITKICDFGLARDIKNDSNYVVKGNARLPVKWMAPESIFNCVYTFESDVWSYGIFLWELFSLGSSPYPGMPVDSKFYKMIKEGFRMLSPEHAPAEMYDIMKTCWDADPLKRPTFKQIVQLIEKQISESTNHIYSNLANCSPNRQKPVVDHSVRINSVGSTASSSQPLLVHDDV
Platelet-derived growth factor receptor beta, sequence (P09619 whole entry): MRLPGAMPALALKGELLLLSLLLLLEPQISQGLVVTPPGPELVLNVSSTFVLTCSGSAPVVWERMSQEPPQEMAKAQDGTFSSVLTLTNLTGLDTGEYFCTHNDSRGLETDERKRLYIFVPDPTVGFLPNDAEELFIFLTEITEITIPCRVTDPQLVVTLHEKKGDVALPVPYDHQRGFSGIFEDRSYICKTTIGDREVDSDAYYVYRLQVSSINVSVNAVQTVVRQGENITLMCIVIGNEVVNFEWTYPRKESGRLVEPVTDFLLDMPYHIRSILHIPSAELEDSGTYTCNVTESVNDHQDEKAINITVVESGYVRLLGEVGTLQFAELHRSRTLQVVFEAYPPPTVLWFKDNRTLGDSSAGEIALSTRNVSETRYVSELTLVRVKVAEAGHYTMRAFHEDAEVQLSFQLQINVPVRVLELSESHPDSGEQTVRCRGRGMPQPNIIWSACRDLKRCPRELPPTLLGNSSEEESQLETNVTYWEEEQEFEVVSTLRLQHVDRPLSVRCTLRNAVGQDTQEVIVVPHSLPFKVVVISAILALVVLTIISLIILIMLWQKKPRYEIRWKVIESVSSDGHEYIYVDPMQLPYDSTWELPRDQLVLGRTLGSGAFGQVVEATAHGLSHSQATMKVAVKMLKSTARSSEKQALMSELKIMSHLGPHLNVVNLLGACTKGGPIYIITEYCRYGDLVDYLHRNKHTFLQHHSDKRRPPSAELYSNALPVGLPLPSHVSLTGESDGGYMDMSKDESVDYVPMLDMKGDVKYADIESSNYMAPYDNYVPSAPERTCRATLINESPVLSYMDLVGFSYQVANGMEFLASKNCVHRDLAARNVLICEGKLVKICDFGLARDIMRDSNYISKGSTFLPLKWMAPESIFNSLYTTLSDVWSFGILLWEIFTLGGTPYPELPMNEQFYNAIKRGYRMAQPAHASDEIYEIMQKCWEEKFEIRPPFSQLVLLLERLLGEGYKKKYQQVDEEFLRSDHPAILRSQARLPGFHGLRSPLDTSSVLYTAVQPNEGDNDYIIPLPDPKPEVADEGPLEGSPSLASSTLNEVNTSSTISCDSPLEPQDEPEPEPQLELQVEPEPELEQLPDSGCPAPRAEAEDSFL
Vascular endothelial growth factor receptor 2, sequence (P35968 whole entry): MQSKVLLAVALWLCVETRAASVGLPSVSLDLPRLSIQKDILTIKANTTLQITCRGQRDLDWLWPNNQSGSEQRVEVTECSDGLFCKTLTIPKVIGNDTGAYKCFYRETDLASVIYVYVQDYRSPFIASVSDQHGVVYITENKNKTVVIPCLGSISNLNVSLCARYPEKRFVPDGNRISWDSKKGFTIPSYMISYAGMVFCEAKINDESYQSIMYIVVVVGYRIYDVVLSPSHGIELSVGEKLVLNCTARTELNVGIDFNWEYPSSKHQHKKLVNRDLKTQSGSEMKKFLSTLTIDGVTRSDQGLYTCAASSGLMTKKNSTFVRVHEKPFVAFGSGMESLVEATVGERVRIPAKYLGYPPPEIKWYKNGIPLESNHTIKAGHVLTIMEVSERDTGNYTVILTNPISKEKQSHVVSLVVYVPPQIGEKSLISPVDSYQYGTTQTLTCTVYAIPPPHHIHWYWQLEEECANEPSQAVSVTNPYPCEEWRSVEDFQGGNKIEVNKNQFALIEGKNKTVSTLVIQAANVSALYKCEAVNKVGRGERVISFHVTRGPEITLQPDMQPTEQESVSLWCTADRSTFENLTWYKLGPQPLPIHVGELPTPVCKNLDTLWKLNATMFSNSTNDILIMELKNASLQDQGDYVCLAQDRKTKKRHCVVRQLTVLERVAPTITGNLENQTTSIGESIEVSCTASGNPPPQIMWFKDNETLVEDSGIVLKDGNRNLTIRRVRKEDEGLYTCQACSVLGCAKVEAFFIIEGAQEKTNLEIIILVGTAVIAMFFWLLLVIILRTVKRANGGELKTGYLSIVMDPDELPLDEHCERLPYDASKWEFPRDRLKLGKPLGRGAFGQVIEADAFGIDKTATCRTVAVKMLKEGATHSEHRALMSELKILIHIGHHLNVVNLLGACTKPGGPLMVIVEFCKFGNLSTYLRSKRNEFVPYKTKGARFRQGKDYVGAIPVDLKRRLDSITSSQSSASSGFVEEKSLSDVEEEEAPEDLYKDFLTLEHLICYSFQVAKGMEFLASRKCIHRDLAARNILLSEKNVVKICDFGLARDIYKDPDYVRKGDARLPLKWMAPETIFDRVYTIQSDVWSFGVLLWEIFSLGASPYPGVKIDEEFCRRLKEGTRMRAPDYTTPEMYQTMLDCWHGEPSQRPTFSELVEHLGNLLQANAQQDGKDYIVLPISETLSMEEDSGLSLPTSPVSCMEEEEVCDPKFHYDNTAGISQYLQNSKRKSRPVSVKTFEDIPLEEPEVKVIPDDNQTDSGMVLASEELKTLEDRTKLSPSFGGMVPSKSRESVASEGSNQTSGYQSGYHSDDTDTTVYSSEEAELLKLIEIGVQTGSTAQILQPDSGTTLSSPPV

Turning to `COc1cc2c(Oc3ccc(NC(=O)c4c(Cl)c5ccccc5n(-c5ccccc5OC(F)(F)F)c4=O)cc3F)ccnc2cc1OCCCN1CCCC1`, the IC50 (usually the midpoint of a concentration-inhibition curve) in the test with HT-29 [1] is 1500 nM; in “cells [2]” it was 360 nM; in the test “cells [3]”, 1400 nM.
Turning to `COc1cc2c(Oc3ccc(NC(=O)c4c(Cl)c5ccccc5n(-c5ccc(F)cc5)c4=O)cc3F)ccnc2cc1OCCCN1CCCCC1`, the IC50 in test [4] was determined as 1600 nM; in the test with A549, 160 nM; in test [5] it was 12.2 nM; in the test with HT-29 [1] it was 290 nM; in “cells [2]”, 110 nM; in the test “cells [3]”, 310 nM.
As for `COc1cc2c(Oc3ccc(NC(=O)c4c(Cl)c5ccccc5n(-c5cc(C)cc(C)c5)c4=O)cc3F)ccnc2cc1OCCCN1CCCC1`, the IC50 in the test with HT-29 [1] came to 300 nM; in “cells [2]”, 620 nM; in “cells [3]”, 1200 nM.
On to `COc1cc2c(Oc3ccc(NC(=O)c4c(Cl)c5ccccc5n(-c5ccc(C)cc5)c4=O)cc3F)ccnc2cc1OCCCN1CCCCC1`, for which the IC50 in the test with HT-29 [1] worked out at 520 nM; in “cells [2]”, 170 nM; in “cells [3]” it was 480 nM.
As to `COc1cc2c(Oc3ccc(NC(=O)c4c(Cl)c5ccccc5n(-c5ccc(C)cc5)c4=O)cc3F)ccnc2cc1OCCCN1CCCC1`, the IC50 in test [4] turned out to be 3240 nM; in the test with A549 it was 230 nM; in the test with HT-29 [1], 480 nM; in “cells [2]”, 230 nM; in the test “cells [3]” it was 900 nM.
Consider `COc1cc2c(Oc3ccc(NC(=O)c4c(Cl)c5ccccc5n(-c5ccccc5OC)c4=O)cc3F)ccnc2cc1OCCCN1CCCCC1`, for which the IC50 in the test with HT-29 [1] came to 12600 nM; in “cells [2]”, 580 nM; in the test “cells [3]”, 420 nM.
In the case of `COc1cc2c(Oc3ccc(NC(=O)c4c(Cl)c5ccccc5n(-c5ccccc5OC)c4=O)cc3F)ccnc2cc1OCCCN1CCOCC1`, the IC50 in the test on HT-29 [1] came to 1400 nM; in “cells [2]” it was 1200 nM; in “cells [3]”, 1260 nM.
Consider `COc1cc2c(Oc3ccc(NC(=O)c4c(Cl)c5ccccc5n(-c5ccc(F)cc5)c4=O)cc3F)ccnc2cc1OCCCN1CCCC1`, for which the IC50 in test [4] came to 640 nM; in the test on A549 it was 720 nM; in [5], 12.5 nM; with HT-29 [1], 150 nM; in “cells [2]”, 120 nM; in “cells [3]”, 570 nM.
For the compound `COc1cc2c(Oc3ccc(NC(=O)c4c(Cl)c5ccccc5n(-c5ccccc5)c4=O)cc3F)ccnc2cc1OCCCN1CCOCC1`, the IC50 in test [4] came out at 4800 nM; in the test with A549, 930 nM; in the test with HT-29 [1] it was 460 nM; in the test “cells [2]”, 260 nM; in the test “cells [3]”, 310 nM.
`COc1cc2c(Oc3ccc(NC(=O)c4c(Cl)c5ccccc5n(-c5ccccc5OC)c4=O)cc3F)ccnc2cc1OCCCN1CCN(C)CC1`: the values for the half-inhibitory concentration (IC50) in the test on HT-29 [1], in “cells [2]” and in “cells [3]” were 530 nM, 150 nM and 120 nM, respectively.
For `COc1cc2c(Oc3ccc(NC(=O)c4c(Cl)c5ccccc5n(-c5ccc(C)cc5)c4=O)cc3F)ccnc2cc1OCCCN1CCN(C)CC1`, the IC50 in test [4] was found to be 1060 nM; in the test with A549, 310 nM; with HT-29 [1] it was 150 nM; in “cells [2]” it was 120 nM; in “cells [3]”, 120 nM.
Regarding `COc1cc2c(Oc3ccc(NC(=O)c4c(Cl)c5ccccc5n(-c5ccccc5)c4=O)cc3F)ccnc2cc1OCCCN1CCCCC1`, the half-inhibitory concentration (IC50) in [4] was 1300 nM; in the test with A549 it was 510 nM; in [5] it was 18.4 nM; with HT-29 [1], 41600 nM; in “cells [2]” it was 140 nM; in “cells [3]”, 280 nM.
Take `COc1cc2c(Oc3ccc(NC(=O)c4c(Cl)c5ccccc5n(-c5ccccc5)c4=O)cc3F)ccnc2cc1OCCCN1CCC(C)CC1`: the IC50 in test [4] was 1420 nM; in the test on A549, 390 nM; in test [5], 6.84 nM; in the test with HT-29 [1], 350 nM; in the test “cells [2]”, 150 nM; in “cells [3]” it was 460 nM.
In the case of `COc1cc2c(Oc3ccc(NC(=O)c4c(Cl)c5ccccc5n(-c5ccccc5)c4=O)cc3F)ccnc2cc1OCCCN1CCN(C)CC1`, the IC50 worked out at 1.75 nM in test [5], 91 nM with HT-29 [1], 61 nM in “cells [2]” and 120 nM in “cells [3]”.
`COc1cc2c(Oc3ccc(NC(=O)c4c(Cl)c5ccccc5n(-c5ccc(F)cc5)c4=O)cc3F)ccnc2cc1OCCCN1CCC(C)CC1`: the IC50 in test [4] is 1920 nM; in the test on A549, 990 nM; in test [5], 3.26 nM; in the test on HT-29 [1], 110 nM; in the test “cells [2]”, 89 nM; in the test “cells [3]”, 160 nM.
Consider `COc1cc2c(Oc3ccc(NC(=O)c4c(Cl)c5ccccc5n(-c5ccc(F)cc5)c4=O)cc3F)ccnc2cc1OCCCN1CCOCC1`, for which the IC50 stood at 8500 nM in test [4]; 110 nM in the test on A549; 5.32 nM in test [5]; 140 nM in the test on HT-29 [1]; 61 nM in the test “cells [2]”; 210 nM in the test “cells [3]”.
For `COc1cc2c(Oc3ccc(NC(=O)c4c(Cl)c5ccccc5n(-c5ccccc5F)c4=O)cc3F)ccnc2cc1OCCCN1CCN(C)CC1`, the IC50 came to 1320 nM in test [4]; 290 nM in the test with A549; 170 nM with HT-29 [1]; 270 nM in the test “cells [2]”; 410 nM in the test “cells [3]”.
For the compound `COc1cc2c(Oc3ccc(NC(=O)c4c(Cl)c5ccccc5n(-c5ccccc5F)c4=O)cc3F)ccnc2cc1OCCCN1CCOCC1`, the IC50 with HT-29 [1] is 1210 nM; in “cells [2]”, 580 nM; in the test “cells [3]”, 740 nM.
With `COc1cc2c(Oc3ccc(NC(=O)c4c(Cl)c5ccccc5n(-c5ccccc5OC(F)(F)F)c4=O)cc3F)ccnc2cc1OCCCN1CCC(C)CC1`, the IC50 with HT-29 [1] came to 570 nM; in “cells [2]”, 380 nM; in the test “cells [3]” it was 310 nM.
Take `COc1cc2c(Oc3ccc(NC(=O)c4c(Cl)c5ccccc5n(-c5ccc(C)cc5)c4=O)cc3F)ccnc2cc1OCCCN1CCC(C)CC1`: the IC50 worked out at 3200 nM in test [4]; 350 nM in the test on A549; 190 nM in the test on HT-29 [1]; 180 nM in “cells [2]”; 120 nM in “cells [3]”.
Taken in the same sequence, the figures for `COc1cc2c(Oc3ccc(NC(=O)c4c(Cl)c5ccccc5n(-c5ccc(C)cc5)c4=O)cc3F)ccnc2cc1OCCCN1CCOCC1` were 5160 nM, 830 nM, 390 nM, 850 nM and 780 nM.
As to `COc1cc2c(Oc3ccc(NC(=O)c4c(Cl)c5ccccc5n(-c5ccc(F)cc5)c4=O)cc3F)ccnc2cc1OCCCN1CCN(C)CC1`, the IC50 in [4] was 520 nM; in the test on A549, 110 nM; in test [5] it was 1.21 nM; in test [8] it was 2.15 nM; in test [9], 363 nM; in test [10] it was 526 nM. Further, the IC50 in test [11] is 543 nM; in test [12], over 100000 nM; with HT-29 [1], 68 nM; in “cells [2]”, 31 nM; in the test “cells [3]”, 160 nM. The “Ratio IC50” value is reported as 6.1 in test [6], 2.4 with HT-29 [7] and 2.1 with U-87 MG.
`COc1cc2c(Oc3ccc(NC(=O)c4c(Cl)c5ccccc5n(-c5ccccc5)c4=O)cc3F)ccnc2cc1OCCCN1CCCC1`: the IC50 was found to be 1600 nM in test [4]; 810 nM in the test on A549; 390 nM in the test with HT-29 [1]; 210 nM in the test “cells [2]”; 210 nM in “cells [3]”.
